Assay results: article PMC9513850, “Receptor-binding domain-anchored peptides block binding of severe acute respiratory syndrome coronavirus 2 spike proteins with cell surface angiotensin-converting enzyme 2” (Frontiers in Microbiology, 2022)
“Also recorded” adds a separate entry of the source.

Columns and labels:
[1] = tested on: recombinant SARS-CoV-2 S-trimer proteins; assay: Phage display (PhD-12) panning against S-trimer; assay type: binding; settings: phage-displayed sequence, after panning against S-trimer
[2] = tested on: S-trimer-ACE2 binding, recombinant ACE2 proteins; assay: Blocking of S-trimer binding onto recombinant ACE2 (ELISA); parameters: species or system SARS-CoV-2 (S-trimer); settings: ACE2 coated 5 μg/ml, S-trimer 0.01 μM premixed with 0.5, 1.65 and 5 μM peptide (up to 500:1)
Description: Then, 293T-ACE2hR cells were substituted by recombinant ACE2 proteins and coated onto ELISA plates in the other measurement setting. In brief, recombinant ACE2 proteins (Novoprotein) were immobilized overnight at room temperature on ELISA plates at a 5 μg/ml concentration in 0.1 M NaHCO3, pH 9.6. The plates were then blocked with 10% fetal calf serum for 2 h and washed with tris-buffered saline solution containing 0.1% Tween-20 [[…] (PBST) buffer]. […] The following procedures were described above for the 293T-ACE2hR cells setting.
FIGURE 3 The potential blocking effect of peptides on the binding of S-trimer onto cellular or soluble angiotensin-converting enzyme 2 (ACE2). […] The peptide SBP1 was used as a positive and peptide SBP2 as the negative control. *p < 0.05, vs. vehicle, all by Student’s t-test.

[3] = tested on: recombinant SARS-CoV-2 S-RBD; assay: Phage display (PhD-12) panning against S-RBD; assay type: binding; settings: phage-displayed sequence, after panning against S-RBD
[4] = tested on: S-trimer-ACE2 binding, 293T-ACE2hR cells; assay type: cell-based, SARS-CoV-2 (S-trimer); human (hACE2); settings: for blocking of S-trimer binding onto 293T-ACE2hR cells, lower concentrations: 10 μM peptide and below, S-trimer 0.001 μM; for blocking of S-trimer binding onto 293T-ACE2hR cells, lower concentrations / blocking of S-trimer binding onto 293T-ACE2hR cells: premix 1 h, then 1 h on cells, room temperature, HRP anti-6X His tag, TMB, OD370 nm; for blocking of S-trimer binding onto 293T-ACE2hR cells: 50 μM peptide vs. 0.001 μM S-trimer (50,000-fold), p < 0.05 mark vs. vehicle, Student's t-test; for behaviour of C2 and C6 in the competition assay: Figure 3
[5] = tested on: cell surface S-RBD proteins; parameters: method as in Zhang et al., 2020; settings: ref Zhang et al., 2020; cited from earlier work
[6] = tested on: ACE2 binding onto S-RBD proteins; parameters: method as in Zhang et al., 2020; settings: ref Zhang et al., 2020; cited from earlier work
S-RBD proteins = tested on: S-RBD proteins; parameters: method as in Zhang et al., 2020; settings: bio-layer interferometry; ref Zhang et al., 2020; cited from earlier work

Row | Sequence | enrichment by S-trimer [1] | blocking of S-trimer binding onto recombinant ACE2 [2] | enrichment by S-RBD [3] | blocking of S-trimer binding onto 293T-ACE2hR cells, lower concentrations [4] | blocking of S-trimer binding onto 293T-ACE2hR cells [4] | behaviour of C2 and C6 in the competition assay [4] | association with cell surface S-RBD proteins [5] | competition with ACE2 binding onto S-RBD [6] | association with S-RBD proteins (S-RBD proteins)
1 | DHAQRYGAGHSG [C2] | only C2 was present in S-trimer selected phages | neither for the settings of S-trimer binding onto recombinant ACE2 proteins; also recorded: Failure of 500-fold overdose of C2 or C6 peptides to block S-trimers binding with their receptors | enriched by S-RBD | not at lower concentrations (10 μM and below) | inhibited S-trimer binding onto 293T-ACE2hR cells at high concentrations (50 μM); also recorded: a blocking effect was observed for C2 and C6 | C2 and C6 behaved similarly in the competition assay |  |  | 
2 | IEEQAKTFLDKFNHEAEDLFYQSK [SBP1] |  |  |  |  | still not for SBP1 or SBP2 peptides |  | neither associated with cell surface S-RBD proteins | nor did they outcompete ACE2 binding onto S-RBD proteins | at the level of micromolar scales
3 | TFLDKFNHEAED [SBP2, reference compound] |  |  |  |  | still not for SBP1 or SBP2 peptides |  |  |  | 
4 | HWKAVNWLKPWT [C6] |  | neither for the settings of S-trimer binding onto recombinant ACE2 proteins; also recorded: Failure of 500-fold overdose of C2 or C6 peptides to block S-trimers binding with their receptors | enriched by S-RBD | not at lower concentrations (10 μM and below) | inhibited S-trimer binding onto 293T-ACE2hR cells at high concentrations (50 μM); also recorded: a blocking effect was observed for C2 and C6 | C2 and C6 behaved similarly in the competition assay |  |  | 
